# According to US5817669A, “Compounds, processes for the preparation thereof and anti-tumor agents” (Dainippon Pharmaceutical Co., Ltd., priority 1994, dated 1998):
# Key:
# [1] = test system: human cancer cells (KB, MX-1, WiDr, HMV-2, LX-1) implanted in nude mice; experiment: Growth inhibition of human cancer cells implanted in nude mice (Test Examples 5 to 9); type: in vivo, human cancer cells in BALB/c nude mice; conditions: 50 mg/kg, FIGS. 1-9 (cell line not stated)
# Description: In the following Test examples 5 to 9, human cancer cells were implanted in nude mice, to which test compounds dissolved in an aqueous solution containing NaOH were administered, and, thus, the degree of growth inhibition of cancer cells was observed.
# FIGS. 1-9 show the variation with the lapse of days of IR.
# FIGS. 10-14 show the relation between tumor weight and the lapse of days in the case where Compound 1--1 was used in Test examples 5-9. Vertical axis corresponds to tumor weight, and horizontal axis corresponds to the days which passed after the start of administration. Tumor weight was estimated from tumor diameter. The term Control in FIGS. 10-14 means tumor weight variation with days in nude mice to which, although cancer cells had been implanted, no test compounds had been administered.
# In the following, there is explained schedule of administration of test compounds in nude mice. After days of × in number have passed from implantation of human cancer cells in nude mice, test compounds are intraperitoneally (ip) administered for y days, followed by wash-out periods of days of z in number. Thereafter, test compounds are administered again for y days. In this case, the cycle of administration (y days) and discontinuation (z days) is called "course". Such a schedule is denoted by marks as follows:
# [(x) (y) (z) (course) (ip)]
# These marks are explained below with an example. […]
smiles,measurement,setting,value
"CN[C@@H]1CN(c2ccc3c(=O)c(C(=O)O)cn(-c4nccs4)c3n2)C[C@H]1OC.Cl (relative stereo) [Compound 1-1, 1,4-dihydro-7-(trans-3-methoxy-4-methylamino-1-pyrrolidinyl)-4-oxo-1-(2-thiazolyl)-1,8-naphthyridine-3-carboxylic acid hydrochloride]",Tumor Growth Inhibition Rate IR % on the last day of observation,[1],91%
same,solubility,"physchem; 0.1 m phosphate buffer, pH 7.2, aqueous buffer",20.1 mg/mL
same,solubility,physchem; water,2.9 mg/mL
